Measurements from patent publication US20180221306A1, “PHARMACEUTICAL COMPOSITIONS OF 5-HYDROXY-2-METHYLNAPHTHALENE-1,4-DIONE” (PellFiCure Pharmaceuticals, Inc., priority 2016, published 2018).
Converted amounts (≈) assume the structure as drawn. Where two headings read alike, the source gives them in different places. Marks after values point to notes of the source that are not given here.

Legend:
[1] = Forced degradation: stability of Compound I formulations in selected solvents and Carrier A (HPLC)
[2] = 5 mg/g
[3] = physchem; type: physicochemical; settings: for solubility thermodynamic: 25 °C, thermodynamic from solid
Method: The maximum quantity of Compound I that can be completely dissolved at 25° C. in the several aqueous buffers and other solvents was evaluated using HPLC. […] Samples were injected with a 250 μg/ml nominal concentration. For samples of unknown concentration, dilutions were made to target the linear range of the method. All samples were quantified based on a linear standard curve. Measurements were performed by Pharmatek Laboratories, Inc. (San Diego, Calif.) with industry-standard quality controls.

[4] = EtOH, 25° C./60% RH, t = 2 week

CC1=CC(=O)c2c(O)cccc2C1=O [Compound I, 5-hydroxy-2-methylnaphthalene-1,4-dione]
Solution Stability in Selected Solvents, % Potency [1, 4]: 93.35%
Solution Stability in Selected Solvents, Purity [1, 4]: 92.82 % Area
Solution Stability in Selected Solvents, Purity ([1]; EtOH, 40° C./75% RH, t = 1 week): 91.99 % Area
Solution Stability in Selected Solvents, Purity ([1]; EtOH, 40° C./75% RH, t = 2 week): 89.39 % Area
Solution Stability in Selected Solvents, Purity ([1]; IPA, 25° C./60% RH, t = 0): 98.80 % Area
Solution Stability in Selected Solvents, Purity ([1]; IPA, 25° C./60% RH, t = 1 week): 95.62 % Area
Solution Stability in Selected Solvents, Purity ([1]; IPA, 25° C./60% RH, t = 2 week): 93.35 % Area
Solution Stability in Selected Solvents, Purity ([1]; IPA, 40° C./75% RH, t = 1 week): 91.10 % Area
Solution Stability in Selected Solvents, Purity ([1]; IPA, 40° C./75% RH, t = 2 week): 89.40 % Area
Solution Stability in Selected Solvents, Purity ([1]; MeOH, 25° C./60% RH, t = 0): 99.32 % Area
Solution Stability in Selected Solvents, Purity ([1]; MeOH, 25° C./60% RH, t = 1 week): 95.54 % Area
Solution Stability in Selected Solvents, Purity ([1]; MeOH, 25° C./60% RH, t = 2 week): 88.79 % Area
Solution Stability in Selected Solvents, Purity ([1]; MeOH, 40° C./75% RH, t = 1 week): 86.56 % Area
Solution Stability in Selected Solvents, Purity ([1]; MeOH, 40° C./75% RH, t = 2 week): 83.85 % Area
Solution Stability in Selected Solvents, Purity ([1]; PEG 300, 25° C./60% RH, t = 0): 98.52 % Area
Solution Stability in Selected Solvents, Purity ([1]; PEG 300, 25° C./60% RH, t = 1 week): 88.59 % Area
Solution Stability in Selected Solvents, Purity ([1]; PEG 300, 25° C./60% RH, t = 2 week): 80.73 % Area
Solution Stability in Selected Solvents, Purity ([1]; PEG 300, 40° C./75% RH, t = 1 week): 65.16 % Area
Solution Stability in Selected Solvents, Purity ([1]; PEG 300, 40° C./75% RH, t = 2 week): 49.31 % Area
Solution Stability in Selected Solvents, Purity ([1]; PEG 400, 25° C./60% RH, t = 0): 98.33 % Area
Solution Stability in Selected Solvents, Purity ([1]; PEG 400, 25° C./60% RH, t = 1 week): 88.42 % Area
Solution Stability in Selected Solvents, Purity ([1]; PEG 400, 25° C./60% RH, t = 2 week): 81.00 % Area
Solution Stability in Selected Solvents, Purity ([1]; PEG 400, 40° C./75% RH, t = 1 week): 70.08 % Area
Solution Stability in Selected Solvents, Purity ([1]; PEG 400, 40° C./75% RH, t = 2 week): 49.07 % Area
Solution Stability in Selected Solvents, Purity ([1]; PG, 25° C./60% RH, t = 0): 99.65 % Area
Solution Stability in Selected Solvents, Purity ([1]; PG, 25° C./60% RH, t = 1 week): 99.14 % Area
Solution Stability in Selected Solvents, Purity ([1]; PG, 25° C./60% RH, t = 2 week): 97.81 % Area
Solution Stability in Selected Solvents, Purity ([1]; PG, 40° C./75% RH, t = 1 week): 97.49 % Area
Solution Stability in Selected Solvents, Purity ([1]; PG, 40° C./75% RH, t = 2 week): 96.43 % Area
Solution Stability in Selected Solvents, Purity ([1]; THF, 25° C./60% RH, t = 0): 96.45 % Area
Solution Stability in Selected Solvents, Purity ([1]; THF, 25° C./60% RH, t = 1 week): 94.19 % Area
Solution Stability in Selected Solvents, Purity ([1]; THF, 25° C./60% RH, t = 2 week): 91.24 % Area
Solution Stability in Selected Solvents, Purity ([1]; THF, 40° C./75% RH, t = 1 week): 92.54 % Area
Solution Stability in Selected Solvents, % Potency ([1]; THF, 40° C./75% RH, t = 2 week): 99.82%
Solution Stability in Selected Solvents, Purity ([1]; THF, 40° C./75% RH, t = 2 week): 89.34 % Area
Compound I lost ([1]; Tween-20 or Tween-80 surfactant formulations): ≥ 50%
Solution Stability in Aqueous Media, % Potency ([2]; 0 week): 92.86%
Solution Stability in Aqueous Media, % Potency ([2]; 0 week, pH 1): 99.62%
Solution Stability in Aqueous Media, % Potency ([2]; 0 week, pH 2): 98.23%
Solution Stability in Aqueous Media, % Potency ([2]; 0 week, pH 3): 96.53%
Solution Stability in Aqueous Media, % Potency ([2]; 0 week, pH 4): 96.76%
Solution Stability in Aqueous Media, % Potency ([2]; 0 week, pH 5): 97.34%
Solution Stability in Aqueous Media, % Potency ([2]; 0 week, pH 6): 94.27%
Solution Stability in Aqueous Media, % Potency ([2]; 0 week, pH 7): 87.84%
Solution Stability in Aqueous Media, % Potency ([2]; 0 week, pH 8): 78.28%
Solution Stability in Aqueous Media, % Potency ([2]; 0 week, pH 9): 85.90%
Solution Stability in Aqueous Media, % Potency ([2]; 0 week, pH 10): 86.55%
Solution Stability in Aqueous Media, % Potency ([2]; 1 week, pH 7): <10%
Solution Stability in Aqueous Media, % Potency ([2]; 1 week, pH 8): <10%
Solution Stability in Aqueous Media, % Potency ([2]; 2 week, pH 7): <10^‡ %
Solution Stability in Aqueous Media, % Potency ([2]; 2 week, pH 8): <10^‡ %
Solution Stability in Aqueous Media, % Potency ([2]; 2 week, pH 9): <10^‡ %
Solution Stability in Aqueous Media, % Potency ([2]; 2 week, pH 10): <10^‡ %
Initial Compound I remaining in the solution ([2]; buffer, 168 h, pH 7): less than 10%
Solubility in Carrier A [3]: well soluble
Solubility in aqueous media [3]: mostly insoluble
Solubility in mixtures of triacylglycerols [3]: good solubility
Solubility in organic solvents [3]: good solubility
solubility thermodynamic ([3]; pH 1, aqueous buffer): 48 µg/mL (≈ 255 µM)
solubility thermodynamic ([3]; pH 2, aqueous buffer): 45 µg/mL (≈ 239 µM)
solubility thermodynamic ([3]; pH 3, aqueous buffer): 49 µg/mL (≈ 260 µM)
solubility thermodynamic ([3]; pH 4, aqueous buffer): 16 µg/mL (≈ 85 µM)
solubility thermodynamic ([3]; pH 5, aqueous buffer): 46 µg/mL (≈ 244 µM)
solubility thermodynamic ([3]; pH 6, aqueous buffer): 44 µg/mL (≈ 234 µM)
solubility thermodynamic ([3]; pH 7, aqueous buffer): 49 µg/mL (≈ 260 µM)
solubility thermodynamic ([3]; pH 8, aqueous buffer): 43 µg/mL (≈ 229 µM)
solubility thermodynamic ([3]; pH 9, aqueous buffer): 75 µg/mL (≈ 399 µM)
solubility thermodynamic ([3]; pH 10, aqueous buffer): 240 µg/mL (≈ 1280 µM)
solubility thermodynamic ([3]; water): 72 µg/mL (≈ 383 µM)
